Reference: patent US9492470B2, “Use of HMGA-targeted phosphorothioate DNA aptamers to suppress carcinogenic activity and increase sensitivity to chemotherapy agents in human cancer cells” (MIAMI UNIVERSITY, priority 2012, dated 2016)
Like-named read-outs stand apart in the source and are kept apart here. In the oligonucleotide strings, read from the 5' end, every base follows the letter of its sugar. An asterisk marks phosphorothioate; unmarked linkages are phosphodiester. Other units and linkages are bracketed, terminal groups are in braces. A string of capitals states the bases alone. d = 2'-deoxy (DNA)

Assays:
[1] = test system: HMGA1 expression levels in AsPC-1 cells; assay: Western blot of HMGA1 expression levels in AsPC-1 nuclear extracts; format: cell-based, Human; details: AsPC-1, 0.5 μg sDNA in six well plates, 48 hours
Description: Cytoplasmic and nuclear protein extracts were prepared from pancreatic cancer cells using NE-PER extraction kit (Thermo Scientific, Rockford, Ill.). Protein concentrations were determined using a bicinchoninic acid assay with bovine serum albumin as a standard. Nuclear proteins that contained 25 or 15 μg total protein were separated by SDS-PAGE with a 4%-20% Criterion gradient gel (Bio-Rad Laboratories, Inc., Hercules, Calif.). The proteins were transferred to immuno-blot PVDF membrane (0.2 μm) (Bio-Rad Laboratories, Inc., Hercules, Calif.) and blocked in 5% dry milk in PBS supplemented with 0.2% Tween 20 (PBST). The PVDF membranes were then probed with 1:1000 dilution of rabbit anti-HMGA1 antibody (Santa Cruz Biotechnology Inc, Santa Cruz, Calif.) and 1:100 dilution of rabbit anti-HMGA2 antibody (Abcam plc, Cambridge, Mass.), in 3% BSA in PBST at 4° C. overnight. After three washes with PBST, the membrane was blotted with secondary antibody, ant-rabbit IgG-HRP (cell signaling) 1:5000 dilution in 1% dry milk in PBST at room temperature for 1 hour. An enhanced chemiluminescence detection (ECL, GE Healthcare Life Sciences, Piscataway, N.J.) system was used to detect target proteins. To ensure equal loading of the proteins between groups, membranes were re-probed with anti-TATA binding protein antibody (Abcam plc, Cambridge, Mass.). […] The control was nuclear extract from untreated cells. Triplicates of each sample were run on the gel and analyzed with the Alpha Imager. The relative HMGA1 densities were obtained by dividing HMGA 1 density by TBP density. […] TATA binding protein (TBP) was used as a loading control. […] HMGA1 expression levels were examined after transfection with CG-sDNA or AT-sDNA to determine if the transfection procedure affected HMGA1 expression levels. The AT-sDNA used for transfection contained an 18 adenine/thymine stretch enabling HMGA1 to bind the DNA with all three AT-hooks. As a negative control, a non-HMGA1-targeted sDNA containing an equal length of DNA but with no AT-stretches, i.e. CG-sDNA, was used. […]

AsPC-1 cells [2] = assay: Cell growth with gemcitabine treatment after sDNA transfection, AsPC-1; format: cell-based, Human; details: AsPC-1, 0.25 ug sDNA, 96 hours
Miapaca-2 cells [3] = assay: Cell growth with gemcitabine treatment after sDNA transfection, Miapaca-2; format: cell-based, Human; details: 96 hours
AsPC-1 cells [4] = assay: Cell growth with gemcitabine treatment after sDNA transfection, AsPC-1; format: cell-based, Human; details: AsPC-1, 0.1 ug sDNA, 96 hours
Description: (§1) Cells were fixed after 96 hours and numbers of viable cells counted by measuring the absorbance at 570 nm.
(§2) Cells were transfected with 0.1 μg of TC-sDNA, Mix-sDNA, CG-sDNA, and AT-sDNA.

Miapaca-2 cells [5] = assay: Cell growth with gemcitabine treatment after sDNA transfection, Miapaca-2; format: cell-based, Human; details: 96 hours; for Fold change in numbers of viable cells normalized relative to TC: Miapaca-2, 0.1 ug sDNA
Description: as §1, §2

AsPC-1 cells [6] = details: for cell death: 96 h, compared to non-transfected cells; for cells dead compared to UT: versus untransfected (UT) cells; for Fold change in numbers of viable cells between TC and sDNA transfected cells (in parentheses) / Fold change in numbers of viable cells between UT and transfected cells: 96 h after transfection
Description: AsPC-1 cells were grown in Roswell Park Memorial Institute medium supplemented with 10% FBS, and 1% penicillin-streptomycin.
Transfections using sDNA at concentrations of 0.1 and 0.25 μg per well were conducted with 5×10^4 and 1×10^5 Miapaca-2 and AsPC-1 cells, respectively, in 24-well plates and all data were collected in quadruplicate. Miapaca-2 and AsPC-1 cells were transfected with sDNA using Lipofectamine 2000 (Invitrogen,™ Life Technologies Corporation, Carlsbad, Calif.) according to the manufacturer's protocol.
Briefly, AsPC-1 cells grown in 10% FBS containing RPIM medium were trypsinized using a trypsin-EDTA solution commercially available from the Sigma-Aldrich, and used to seed fresh media in a 24-well plate with 10^5 cells per well.
After 48 hours, the cells were transfected with the selected sDNA using Lipofectamine 2000 (Invitrogen,™ Life Technologies Corporation, Carlsbad, Calif.) according to the manufacturer's protocol. […] The cells were then fixed with 4% paraformaldehyde in PBS for 20 minutes and stained in 0.1% crystal violet stain (Sigma-Aldrich) for 30 minutes. The cells were washed under running tap water, air dried, and extracted with 0.2% Triton™ X-100 for 30 minutes. […] The absorbance of the Triton X-100 was measured at 570 nm using a HTS microplate reader. All results were analyzed for statistical significance using a student's unpaired t-test.

Miapaca-2 cells [7] = assay: Cell viability (crystal violet) after sDNA transfection, Miapaca-2; format: cell-based, Human; details: for cells dead compared to UT: versus untransfected (UT) cells; for Fold change in numbers of viable cells between TC and sDNA transfected cells (in parentheses) / Fold change in numbers of viable cells between UT and transfected cells: 96 h after transfection
Description: The absorbance was measured at 570 nm in quadruplicate. All data from control cells were combined and averaged.

In the case of “CG-sDNA: CG-rich phosphorothioate DNA (SEQ ID NO: 12), negative control with no AT-stretches (DNA dC*dC*dC*dC*dG*dG*dG*dC*dC*dC*dC*dG*dG*dC*dC*dG*dG*dG*dC*dG*dC*dC*dG*dC)”, the “change in HMGA1 expression levels after sDNA transfection” value [1] is reported as “no changes”, the “Fold change in numbers of viable cells normalized relative to TC” value (AsPC-1 cells [2]; Gemcitabine 0 nM) is reported as −1.10 fold and the “Fold change in numbers of viable cells normalized relative to TC” value (AsPC-1 cells [2]; Gemcitabine 1 nM) is reported as −1.10 fold. The “Fold change in numbers of viable cells normalized relative to TC” value (AsPC-1 cells [2]; Gemcitabine 10 nM) was −1.21 fold, the “Fold change in numbers of viable cells normalized relative to TC” value (AsPC-1 cells [2]; Gemcitabine 30 nM) was −1.69 fold and the “Fold change in numbers of viable cells normalized relative to TC” value (AsPC-1 cells [2]; Gemcitabine 100 nM) was −1.36 fold. For the same substance, the “Fold change in numbers of viable cells normalized relative to TC” value (AsPC-1 cells [2]; Gemcitabine 1000 nM) was −2.16 fold, the “Fold change in numbers of viable cells normalized relative to TC” value (Miapaca-2 cells [3]; Miapaca-2, 0.1 ug sDNA, Gemcitabine 1 nM) was 1.12 fold and the “Fold change in numbers of viable cells normalized relative to TC” value (Miapaca-2 cells [3]; Miapaca-2, 0.25 ug sDNA, Gemcitabine 0 nM) was −1.30 fold. The “Fold change in numbers of viable cells normalized relative to TC” value (Miapaca-2 cells [3]; Miapaca-2, 0.25 ug sDNA, Gemcitabine 1 nM) was −1.38 fold, the “Fold change in numbers of viable cells normalized relative to TC” value (Miapaca-2 cells [3]; Miapaca-2, 0.25 ug sDNA, Gemcitabine 10 nM) was −1.37 fold and the “Fold change in numbers of viable cells normalized relative to TC” value (Miapaca-2 cells [3]; Miapaca-2, 0.25 ug sDNA, Gemcitabine 30 nM) was −2.97 fold. The “Fold change in numbers of viable cells normalized relative to TC” value (Miapaca-2 cells [3]; Miapaca-2, 0.25 ug sDNA, Gemcitabine 100 nM) was −5.48 fold, the “Fold change in numbers of viable cells normalized relative to TC” value (Miapaca-2 cells [3]; Miapaca-2, 0.25 ug sDNA, Gemcitabine 1000 nM) was −4.11 fold and the “Fold change in numbers of viable cells normalized relative to TC” value (AsPC-1 cells [4]; Gemcitabine 0 nM) was −1.11 fold. For the same substance, the “Fold change in numbers of viable cells normalized relative to TC” value (AsPC-1 cells [4]; Gemcitabine 1 nM) was −1.09 fold, the “Fold change in numbers of viable cells normalized relative to TC” value (AsPC-1 cells [4]; Gemcitabine 10 nM) was −1.18 fold and the “Fold change in numbers of viable cells normalized relative to TC” value (AsPC-1 cells [4]; Gemcitabine 30 nM) was −1.34 fold. For the same substance, the “Fold change in numbers of viable cells normalized relative to TC” value (AsPC-1 cells [4]; Gemcitabine 100 nM) was −1.52 fold, the “Fold change in numbers of viable cells normalized relative to TC” value (AsPC-1 cells [4]; Gemcitabine 1000 nM) was −1.67 fold and the “cells dead / change in cell viability” value (Miapaca-2 cells [5]; Miapaca-2, 0.1 μg sDNA, 1 nM gemcitabine) was “no significant change”. For the same substance, the cells surviving (Miapaca-2 cells [5]; Miapaca-2, 0.1 μg sDNA, 10 nM gemcitabine, normalized to 0 nM gemcitabine) was 83.9%, the “Fold change in numbers of viable cells normalized relative to TC” value (Miapaca-2 cells [5]; Gemcitabine 0 nM) was 1.09 fold and the “Fold change in numbers of viable cells normalized relative to TC” value (Miapaca-2 cells [5]; Gemcitabine 10 nM) was −1.09 fold. The “Fold change in numbers of viable cells normalized relative to TC” value (Miapaca-2 cells [5]; Gemcitabine 30 nM) was −3.29 fold, the “Fold change in numbers of viable cells normalized relative to TC” value (Miapaca-2 cells [5]; Gemcitabine 100 nM) was −4.06 fold and the “Fold change in numbers of viable cells normalized relative to TC” value (Miapaca-2 cells [5]; Gemcitabine 1000 nM) was −4.24 fold. The cell death (AsPC-1 cells [6]; AsPC-1, 0.1 μg sDNA per well) was 12%, the “cells dead compared to UT” value (AsPC-1 cells [6]; AsPC-1, 0.1 ug sDNA, 48 hrs) was 33.8% and the “Fold change in numbers of viable cells between TC and sDNA transfected cells (in parentheses)” value (“Fold change in numbers … (in parentheses)” below) (AsPC-1 cells [6]; AsPC-1, 0.1 μg sDNA) was “(−1.11) fold”. The “Fold change in numbers of viable cells between UT and transfected cells” value (AsPC-1 cells [6]; AsPC-1, 0.1 μg sDNA) was −1.20 fold, the “cells dead compared to TC” value (AsPC-1 cells [6]; AsPC-1, 0.1 μg sDNA, 96 hrs, versus transfection control (TC) cells) was 9.7% and the “cells dead compared to UT” value (AsPC-1 cells [6]; AsPC-1, 0.1 ug sDNA, 96 hrs) was 14.3%. The “difference in cell viability between TC cells and sDNA transfected cells” value (AsPC-1 cells [6]; AsPC-1, 0.1 ug sDNA, both 48 and 96 hours) was “no significant differences”, the cell death (AsPC-1 cells [6]; AsPC-1, 0.25 μg sDNA per well) was 16% and the “Fold change in numbers … (in parentheses)” value (AsPC-1 cells [6]; AsPC-1, 0.25 μg sDNA) was “(−1.10) fold”. The “Fold change in numbers of viable cells between UT and transfected cells” value (AsPC-1 cells [6]; AsPC-1, 0.25 μg sDNA) was −1.19 fold, the “cell death compared to TC” value (AsPC-1 cells [6]; AsPC-1, 0.25 μg sDNA, 96 hours, versus TC cells) was 9.0% and the cell death (AsPC-1 cells [6]; AsPC-1, 1.0 μg sDNA per well) was 60%. The “cells dead compared to TC” value (AsPC-1 cells [6]; AsPC-1, 1.0 μg sDNA, 96 hours, versus TC cells) was 56.4%, the “cells dead compared to UT” value (Miapaca-2 cells [7]; Miapaca-2, 0.1 ug sDNA, 48 hrs) was 36.3% and the “Fold change in numbers … (in parentheses)” value (Miapaca-2 cells [7]; Miapaca-2, 0.1 μg sDNA) was “(1.09) fold”. For the same substance, the “Fold change in numbers of viable cells between UT and transfected cells” value (Miapaca-2 cells [7]; Miapaca-2, 0.1 μg sDNA) was −1.43 fold, the “cells dead compared to UT” value (Miapaca-2 cells [7]; Miapaca-2, 0.1 ug sDNA, 96 hrs) was 32.0% and the “difference in cell viability between TC cells and sDNA transfected cells” value (Miapaca-2 cells [7]; Miapaca-2, 0.1 ug sDNA, both 48 and 96 hours) was “no significant differences”. The “Fold change in numbers … (in parentheses)” value (Miapaca-2 cells [7]; Miapaca-2, 0.25 μg sDNA) was “(−1.30) fold” and the “Fold change in numbers of viable cells between UT and transfected cells” value (Miapaca-2 cells [7]; Miapaca-2, 0.25 μg sDNA) was −2.15 fold.
